These results are taken from patent US5200309A, “Color photographic materials including magenta coupler, carbonamide compound and aniline or amine compound, and methods” (Eastman Kodak Company, priority 1991, dated 1993).

The data set can be described thus: Potentiometric titration of dispersion pKa of couplers (two-phase aqueous dispersion). Format: physicochemical. From the text: Preferred two-equivalent magenta dye-forming couplers for the practice of this invention include those that have pKa values of less than 10.0 when dispersed together with a coupler solvent. Potentiometric titrations were used to measure pKa values for some of the preferred couplers of the invention as aqueous dispersions. In these two-phase mixtures, the term pKa denotes the aqueous buffer pH at which half of the coupler in the oil phase is ionized or ion paired. Table I lists dispersion pKa values measured with 0.50 M potassium counter ion.

Setting [1] is: coupler solvent S2, coupler:solvent weight ratio 1:2, 0.50 M potassium.
Setting [2] is: coupler solvent C5, coupler:solvent weight ratio 1:1, 0.50 M potassium.
Where [3] appears, read: coupler solvent S1, coupler:solvent weight ratio 1:1, 0.50 M potassium.

`CCCCCCCCCCCCNS(=O)(=O)c1ccc(NC2=NN(c3c(Cl)cc(Cl)cc3Cl)C(=O)C2Sc2cc(C(C)(C)CC(C)(C)C)ccc2OCCCC)c(Cl)c1` (stereo not drawn) [Coupler M1]: the “pKa(0.5M K+)” value under setting [1] was determined as 8.5.

As for `CCCCCCCCCCCCCC(=O)Nc1ccc(Cl)c(NC2=NN(c3c(Cl)cc(Cl)cc3Cl)C(=O)C2Sc2ccccc2NC(=O)C(CC)Oc2ccc(C(C)(C)CC)cc2C(C)(C)CC)c1` (stereo not drawn) [Coupler M3], the “pKa(0.5M K+)” value came out at 8.2 under setting [2] and 7.9 under setting [3].

Take `CCCCCCCCCCCCNS(=O)(=O)c1ccc(NC2=NN(c3c(Cl)cc(Cl)cc3Cl)C(=O)C2Sc2ccccc2NC(=O)C(CC)Oc2ccc(C(C)(C)CC)cc2C(C)(C)CC)c(Cl)c1` (stereo not drawn) [Coupler M4]: the “pKa(0.5M K+)” value came out at 8.0 under setting [2] and 7.6 under setting [3].

As for `CCCCCCCCCCCCCCCC(=O)Nc1ccc(Cl)c(NC2=NN(c3c(Cl)c(Cl)c(Cl)c(Cl)c3Cl)C(=O)C2Sc2ccccc2NC(=O)OCc2ccccc2)c1` (stereo not drawn) [Coupler M7], the “pKa(0.5M K+)” value under setting [1] turned out to be 7.5.

For the compound `CCCCCCCCCCCCNS(=O)(=O)c1ccc(NC2=NN(c3c(Cl)cc(Cl)cc3Cl)C(=O)C2Sc2ccccc2NC(=O)CCCCCCCCCCC)c(Cl)c1` (stereo not drawn) [Coupler M8], the “pKa(0.5M K+)” value under setting [1] was found to be 7.9.

Turning to `CCCCCCCCCCCCCCCCCCNS(=O)(=O)c1ccc(Cl)c(NC2=NN(c3c(Cl)cc(Cl)cc3Cl)C(=O)C2Sc2cc(C(C)C)ccc2C(C)C)c1` (stereo not drawn) [Coupler M20], the “pKa(0.5M K+)” value is, setting by setting: (coupler solvent C1, coupler:solvent weight ratio 1:2, 0.50 M potassium) 8.9; under setting [1], 8.4.
